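Values below derive from 48-hour exposures of cells grown in 96-well plates, with endpoints linearly interpolated between the two concentrations bracketing the appropriate inhibition level. The concentration for 50% growth inhibition is given as GI50. Definition used: TGI = concentration required for complete inhibition of growth.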
Columns and labels:
Test in all cases: NCI-60 cell line screen, 48 h
[1] = test system: SK-MEL-2 melanoma
[2] = test system: HOP-92 NSCLC
[3] = test system: MOLT-4 leukemia
[4] = test system: SK-OV-3 ovarian
[5] = test system: SF-268 CNS
[6] = test system: NCI/ADR-RES ovarian
[7] = test system: LOX IMVI melanoma
[8] = test system: OVCAR-5 ovarian
[9] = test system: NCI-H226 lung
[10] = test system: NCI-H460 lung
[11] = test system: SF-539 CNS
[12] = test system: DU-145 prostate
[13] = test system: A498 renal
[14] = test system: SF-295 CNS
[15] = test system: MDA-MB-231 breast
[16] = test system: HCT-116 colon
[17] = test system: U251 CNS
[18] = test system: UACC-62 melanoma
[19] = test system: BT-549 breast
[20] = test system: HCC-2998 colon
[21] = test system: UO-31 renal
[22] = test system: SR leukemia
[23] = test system: M14 melanoma
[24] = test system: SNB-75 CNS
[25] = test system: OVCAR-8 ovarian
[26] = test system: MCF7 breast
[27] = test system: HOP-62 NSCLC
[28] = test system: SK-MEL-28 melanoma
[29] = test system: PC-3 prostate
[30] = test system: HCT-15 colon
[31] = test system: OVCAR-3 ovarian
[32] = test system: RXF 393 renal
[33] = test system: CAKI-1 renal
[34] = test system: SW-620 colon
[35] = test system: UACC-257 melanoma
[36] = test system: NCI-H23 lung
[37] = test system: HL-60(TB) leukemia
[38] = test system: TK-10 renal
[39] = test system: K-562 leukemia
[40] = test system: 786-0 renal
[41] = test system: CCRF-CEM leukemia
[42] = test system: IGROV1 ovarian
[43] = test system: RPMI-8226 leukemia
[44] = test system: SN12C renal
[45] = test system: MDA-MB-435
[46] = test system: EKVX NSCLC
[47] = test system: T-47D breast
[48] = test system: KM12 colon
[49] = test system: HS 578T breast
[50] = test system: ACHN renal
[51] = test system: COLO 205 colon
[52] = test system: SK-MEL-5 melanoma
[53] = test system: A549 NSCLC
[54] = test system: MALME-3M melanoma
[55] = test system: HT29 colon
[56] = test system: SNB-19 CNS
[57] = test system: OVCAR-4 ovarian
[58] = test system: NCI-H522 lung

**Q.** What does the source list for COc1nc2ccccc2cc1-c1nc2c(cnn2-c2ccc(Br)cc2)c(=O)[nH]1?
**A.** GI50 [1]: 94.6 nM; TGI [1]: 9220 nM; GI50 [2]: 127 nM; TGI [2]: > 28300 nM; GI50 [3]: 87.9 nM; TGI [3]: > 50000 nM; GI50 [4]: 63.8 nM; TGI [4]: 24500 nM; GI50 [5]: 131 nM; TGI [5]: > 50000 nM; GI50 [6]: 18.6 nM; TGI [6]: 1580 nM; GI50 [7]: 27.6 nM; TGI [7]: > 50000 nM; GI50 [8]: 798 nM; TGI [8]: > 50000 nM; GI50 [9]: 510 nM; TGI [9]: > 50000 nM; GI50 [10]: 24.1 nM; TGI [10]: > 50000 nM; GI50 [11]: 19.4 nM; TGI [11]: 1630 nM; GI50 [12]: 34.4 nM; TGI [12]: 13800 nM; GI50 [13]: 13.9 nM; TGI [13]: 521 nM; GI50 [14]: 19.5 nM; TGI [14]: 1620 nM; GI50 [15]: 133 nM; TGI [15]: > 27400 nM; GI50 [16]: 19.6 nM; TGI [16]: > 50000 nM; GI50 [17]: 24.1 nM; TGI [17]: 7420 nM; GI50 [18]: 23.4 nM; TGI [18]: > 50000 nM; GI50 [19]: 156 nM; TGI [19]: > 25100 nM; GI50 [20]: 587 nM; TGI [20]: > 50000 nM; GI50 [21]: 60.3 nM; TGI [21]: > 50000 nM; GI50 [22]: 11.6 nM; TGI [22]: 5410 nM; GI50 [23]: 20.4 nM; TGI [23]: 2330 nM; GI50 [24]: 16.1 nM; TGI [24]: 1460 nM; GI50 [25]: 57.7 nM; TGI [25]: > 50000 nM; GI50 [26]: 20.1 nM; TGI [26]: > 50000 nM; GI50 [27]: 36.3 nM; TGI [27]: 7390 nM; GI50 [28]: 361 nM; TGI [28]: > 50000 nM; GI50 [29]: 23.1 nM; TGI [29]: > 50000 nM; GI50 [30]: 26.1 nM; TGI [30]: > 50000 nM; GI50 [31]: 17.1 nM; TGI [31]: 219 nM; GI50 [32]: 16.3 nM; TGI [32]: 245 nM; GI50 [33]: 19.6 nM; TGI [33]: > 50000 nM; GI50 [34]: 22.8 nM; TGI [34]: > 50000 nM; GI50 [35]: 6770 nM; TGI [35]: > 50000 nM; GI50 [36]: 82.5 nM; TGI [36]: 10900 nM; GI50 [37]: 15.8 nM; TGI [37]: 81.5 nM; GI50 [38]: 210 nM; TGI [38]: 8800 nM; GI50 [39]: 18.2 nM; TGI [39]: 13400 nM; GI50 [40]: 40.3 nM; TGI [40]: 8600 nM; GI50 [41]: 23.8 nM; TGI [41]: > 31800 nM; GI50 [42]: 59.1 nM; TGI [42]: > 50000 nM; GI50 [43]: 40.2 nM; TGI [43]: 6790 nM; GI50 [44]: 73.9 nM; TGI [44]: > 50000 nM; GI50 [45]: 9.57 nM; TGI [45]: 24 nM; GI50 [46]: 81.7 nM; TGI [46]: > 50000 nM; GI50 [47]: 41.3 nM; TGI [47]: > 50000 nM; GI50 [48]: 22.6 nM; TGI [48]: > 50000 nM; GI50 [49]: 28.2 nM; TGI [49]: 4710 nM; GI50 [50]: 34.5 nM; TGI [50]: > 50000 nM; GI50 [51]: 54.5 nM; GI50 [52]: 29.3 nM; GI50 [53]: 83.7 nM; TGI [53]: > 50000 nM; GI50 [54]: 519 nM; TGI [54]: > 50000 nM; GI50 [55]: 19.1 nM; TGI [55]: > 50000 nM; GI50 [56]: 24.4 nM; TGI [56]: 15100 nM; TGI [57]: > 50000 nM; GI50 [58]: 15.3 nM

From PubChem BioAssay (NCI)
